Source: the NIST ThermoML archive (doi:10.1021/je2007605)

Assays:
[1] = for Normal melting temperature: DTA
[2] = Molar enthalpy of transition or fusion; details: Crystal; DSC

COC(=O)c1ccc(N(C)C)cc1 [methyl 4-(dimethylamino)benzoate]
vapor or sublimation pressure [kPa], [1]
Details	Crystal	Liquid
311.12 K, Calculated from knudsen effusion weight loss	8.2e-05	–
313.19 K, Calculated from knudsen effusion weight loss	0.000104	–
315.17 K, Calculated from knudsen effusion weight loss	0.000131	–
317.11 K, Calculated from knudsen effusion weight loss	0.000166	–
319.18 K, Calculated from knudsen effusion weight loss	0.000211	–
323.12 K, Calculated from knudsen effusion weight loss	0.000332	–
324.96 K, Closed cell (Static) method	0.00043	–
325.18 K, Calculated from knudsen effusion weight loss	0.000421	–
326.93 K, Closed cell (Static) method	0.00053	–
327.16 K, Calculated from knudsen effusion weight loss	0.000525	–
328.93 K, Closed cell (Static) method	0.00068	–
329.11 K, Calculated from knudsen effusion weight loss	0.000662	–
330.9 K, Closed cell (Static) method	0.00084	–
331.17 K, Calculated from knudsen effusion weight loss	0.000829	–
332.91 K, Closed cell (Static) method	0.00105	–
333.16 K, Calculated from knudsen effusion weight loss	0.001019	–
334.88 K, Closed cell (Static) method	0.0013	–
336.89 K, Closed cell (Static) method	0.00161	–
338.85 K, Closed cell (Static) method	0.00199	–
340.86 K, Closed cell (Static) method	0.00246	–
342.81 K, Closed cell (Static) method	0.00298	–
344.83 K, Closed cell (Static) method	0.00365	–
346.78 K, Closed cell (Static) method	0.00447	–
348.79 K, Closed cell (Static) method	0.00542	–
350.75 K, Closed cell (Static) method	0.00655	–
352.74 K, Closed cell (Static) method	0.00799	–
352.78 K, Closed cell (Static) method	–	0.01105
354.73 K, Closed cell (Static) method	0.0096	–
354.77 K, Closed cell (Static) method	–	0.01276
356.72 K, Closed cell (Static) method	0.01168	–
356.75 K, Closed cell (Static) method	–	0.01475
358.69 K, Closed cell (Static) method	0.01403	–
358.73 K, Closed cell (Static) method	–	0.01697
360.68 K, Closed cell (Static) method	0.01658	–
360.72 K, Closed cell (Static) method	–	0.01953
362.67 K, Closed cell (Static) method	0.01987	–
362.7 K, Closed cell (Static) method	–	0.02236
364.65 K, Closed cell (Static) method	0.02318	–
364.68 K, Closed cell (Static) method	–	0.02563
366.61 K, Closed cell (Static) method	0.02725	–
366.67 K, Closed cell (Static) method	–	0.02928
368.66 K, Closed cell (Static) method	0.03255	0.03341
370.64 K, Closed cell (Static) method	–	0.03797
372.62 K, Closed cell (Static) method	–	0.04321
374.62 K, Closed cell (Static) method	–	0.04885
376.56 K, Closed cell (Static) method	–	0.05553
378.53 K, Closed cell (Static) method	–	0.0627
380.52 K, Closed cell (Static) method	–	0.07058
382.5 K, Closed cell (Static) method	–	0.07972
384.49 K, Closed cell (Static) method	–	0.08949
386.42 K, Closed cell (Static) method	–	0.1006
388.46 K, Closed cell (Static) method	–	0.1126
390.44 K, Closed cell (Static) method	–	0.1259

Details	Normal melting temperature [°C]
[1], Crystal	98.14

Details	Molar enthalpy of transition or fusion [kJ/mol]
[2]	23.4

COC(=O)c1ccc(C)cc1 [methyl 4-methylbenzoate]
[1], Closed cell (Static) method
Details	vapor or sublimation pressure [kPa]
269.27 K, Crystal	0.0004
271.21 K, Crystal	0.00052
273.18 K, Crystal	0.00067
275.19 K, Crystal	0.00087
277.14 K, Crystal	0.00112
279.16 K, Crystal	0.00145
281.08 K, Crystal	0.00184
283.07 K, Crystal	0.00235
285.08 K, Crystal	0.003
287.05 K, Crystal	0.00377
289.04 K, Crystal	0.00475
291.04 K, Crystal	0.00599
293.03 K, Liquid	0.01066
293.04 K, Crystal	0.00745
295.02 K, Crystal	0.00939
295.08 K, Liquid	0.0127
297.03 K, Crystal	0.01167
297.05 K, Liquid	0.01498
299.02 K, Crystal	0.01451
299.04 K, Liquid	0.01755
300.98 K, Crystal	0.01795
301.03 K, Liquid	0.02057
303 K, Liquid	0.02404
305.03 K, Liquid	0.02784
306.98 K, Liquid	0.03242
308.97 K, Liquid	0.03825
310.97 K, Liquid	0.0434
312.95 K, Liquid	0.05065
314.97 K, Liquid	0.05815
316.99 K, Liquid	0.06735
318.9 K, Liquid	0.07685
320.95 K, Liquid	0.08945
322.94 K, Liquid	0.1009
324.92 K, Liquid	0.1171
326.96 K, Liquid	0.132
328.85 K, Liquid	0.151
330.92 K, Liquid	0.1689
332.84 K, Liquid	0.1934
334.91 K, Liquid	0.2162
336.82 K, Liquid	0.2454
338.88 K, Liquid	0.2748
340.75 K, Liquid	0.31
342.8 K, Liquid	0.3469
344.71 K, Liquid	0.3884
346.77 K, Liquid	0.4353
348.75 K, Liquid	0.484

Details	Normal melting temperature [°C]
[1], Crystal	31.94

Details	Molar enthalpy of transition or fusion [kJ/mol]
[2]	20.2
